One experiment concerns the target human CypA (Homo sapiens, UniProt P62937). The class given is biochemical. To be noted: protease-coupled PPIase assay; read-out: In vitro inhibition human CypA IC50.
For a further experiment, the target named is CnA (Homo sapiens, UniProt P62937+P63098+Q08209). The experiment is classed as biochemical. Particulars: for IC50: read-out: In vitro inhibition CnA IC50.
The test system of another experiment is NFAT. Put plainly: NFAT reporter gene assay (luciferase) in Jurkat cells. To be noted: luciferase-coupled NFAT reporter gene assay; for IC50: read-out: In vitro inhibition NFAT reporter gene assay IC50. The class given is cell-based.
A further experiment deals with HCoV-NL63. Put plainly: microbe, parasite or virus in culture. The experiment is classed as cell-based. Particulars: read-out: Inhibition of HCoV-NL63 in CaCo-2 EC50.
The test system of a further experiment is NFAT-GFP. Briefly: NFAT-GFP nuclear translocation assay. Particulars: 40 nM compound, ionomycin 2 μM; yes = non-immunosuppressive.
Another experiment relates to HCoV-NL63 N protein. Briefly: Western blot of N protein expression in HCoV-NL63-infected CaCo2 cells. The class given is cell-based. To be noted: 48 hours, 0 to 20 μM.
A further experiment has as its system HCoV-229E-LUC. Put plainly: microbe, parasite or virus in culture. The experiment is classed as cell-based. Particulars: for inhibition of 229E-LUC replication (in words): Huh-7.5 cells.
In the next experiment the test system is HCoV-229E N protein. The experiment is classed as cell-based. Particulars: 48 h.
The test system of experiment [1] is Feline Coronavirus (FCoV-LUC). Briefly: FCoV-LUC replication in Felis catus whole fetus (fcwf) cells, Renilla luciferase. The experiment is classed as cell-based. Particulars: micromolar concentration, FIG. 10.
Another experiment has as its system SARS-CoV-Replicon RNA. The experiment is classed as cell-based. Particulars: BHK-21 cells, 20 hours, FIG. 11.
Experiment [2] deals with Mouse Hepatitis Virus (MHV-LUC). Put plainly: MHV-LUC replication in L929 cells, luciferase activity. To be noted: micromolar concentration, FIG. 12.
A further experiment relates to lymphocyte proliferation. To be noted: Sadeg et al. 1993; cited from earlier work.
[3] abbreviates: Human coronavirus NL63, Caco-2, 48 h.
The mark [4] stands for this setting: Human coronavirus 229E, Huh7.5, 18 h, read-out: EC50 HCoV-229E-LUC, 18 hrs p.I., Huh-7.5, MOI=0.1.
Setting [5] is: Human coronavirus 229E, Huh7.5, 48 h, read-out: EC50 HCoV-229E-LUC, 48 hrs p.I., Huh-7.5, MOI=0.1.

This is an account of results in US9415087B2, “Compositions and methods for treating coronavirus infection” (LUDWIG-MAXIMILIANS-UNIVERSITAET MUENCHEN, priority 2014, dated 2016).

Entries after “also recorded” stand apart in the source; their conditions may differ. Where two headings read alike, the source gives them in different places.

CnA, sequence (P62937 whole entry, other chains not shown): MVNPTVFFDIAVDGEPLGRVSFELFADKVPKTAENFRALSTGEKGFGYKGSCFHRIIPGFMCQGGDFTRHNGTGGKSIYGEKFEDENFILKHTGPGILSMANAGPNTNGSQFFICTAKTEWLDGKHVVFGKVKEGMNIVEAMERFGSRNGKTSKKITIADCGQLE
CnA, sequence (P63098 2-170, other chains not shown): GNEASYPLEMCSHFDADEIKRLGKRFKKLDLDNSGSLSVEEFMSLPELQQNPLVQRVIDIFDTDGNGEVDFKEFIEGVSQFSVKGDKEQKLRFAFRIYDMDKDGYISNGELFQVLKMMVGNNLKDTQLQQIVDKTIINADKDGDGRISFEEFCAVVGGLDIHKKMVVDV
human CypA, sequence (P62937 whole entry): as the sequence (P62937 whole entry, other chains not shown) above

A word on the IC50: it is the concentration needed to halve the response being measured. Usually EC50 stands for the concentration at which the effect is half-maximal. With `CCOP(=O)(CC=CCC(C)C(O)C1C(=O)NC(CC)C(=O)N(C)CC(=O)N(C)C(CC(C)C)C(=O)NC(C(C)C)C(=O)N(C)C(CC(C)C)C(=O)NC(C)C(=O)NC(C)C(=O)N(C)C(CC(C)C)C(=O)N(C)C(CC(C)C)C(=O)N(C)C(C(C)C)C(=O)N1C)OCC` (mixture of isomers) [Compound 1], the IC50 at human CypA stood at 0.0091 µM. Besides, the “In vitro inhibition CnA IC50” value on CnA (binary PPIase/drug complexes) was “could not be inhibited at all and no”. For the same molecule, the “In vitro inhibition NFAT reporter gene assay IC50” value with NFAT is “no”. The EC50 in the experiment on HCoV-NL63 came out at 1.6 µM. For the same molecule, in the experiment on NFAT-GFP, the “NFAT-GFP translocation in HEK-293 cells (to the nucleus)” value (“NFAT-GFP translocation in HEK-293 cells” below) is reported as “yes”.

Take `C/C=C/C[C@@H](C)[C@@H](O)[C@H]1C(=O)N[C@@H](CC)C(=O)N(C)[C@H](C)C(=O)N(CC)[C@@H](C(C)C)C(=O)N[C@@H](C(C)C)C(=O)N(C)[C@@H](CC(C)C)C(=O)N[C@@H](C)C(=O)N[C@H](C)C(=O)N(C)[C@@H](CC(C)C)C(=O)N(C)[C@@H](CC(C)C)C(=O)N(C)[C@@H](C(C)C)C(=O)N1C` [ALV, Alisporivir]: the EC50 in the experiment with HCoV-NL63 (setting [3]) was determined as 0.8 µM; with HCoV-229E-LUC (setting [4]) it was 2.77 µM; with HCoV-229E-LUC (setting [5]) it was 1.37 µM. Further, in the experiment on HCoV-NL63 N protein, the “concentration at which HCoV-NL63 N-protein decreases” value was determined as 1.25 µM. Further, the “inhibition of 229E-LUC replication (in words)” value in the experiment on HCoV-229E-LUC is reported as “low micromolar range”. In the experiment with HCoV-229E N protein (Western blot), the “concentration at which HCoV-229E N protein is not detectable anymore” value was determined as 1.25 µM. Besides, the “inhibition of feline Coronavirus spread (in words)” value in [1] is “inhibits spread”. For the same molecule, the “inhibition of SARS-CoV-RNA replicon propagation (in words)” value with SARS-CoV-Replicon RNA is recorded as “inhibition”. In addition, the “NFAT-GFP translocation in HEK-293 cells” value in the experiment with NFAT-GFP is “yes”. Moreover, the “inhibition of murine Coronavirus spread (in words)” value in experiment [2] is given as “inhibits spread”.

In the case of `CCC1NC(=O)C(C(O)C(C)CC=CCN(C)C)N(C)C(=O)C(C(C)C)N(C)C(=O)C(CC(C)C)N(C)C(=O)C(CC(C)C)N(C)C(=O)C(C)NC(=O)C(C)NC(=O)C(CC(C)C)N(C)C(=O)C(C(C)C)NC(=O)C(CC(C)C)N(C)C(=O)CN(C)C1=O` (centres unmarked) [Compound 2], in the experiment on HCoV-NL63, the EC50 turned out to be 7.9 µM. Further, the “NFAT-GFP translocation in HEK-293 cells” value in the experiment on NFAT-GFP was “yes”.

Take `CCC1NC(=O)C(C(O)C(C)Cc2nc3ccc(C(=O)OC)cc3[nH]2)N(C)C(=O)C(C(C)C)N(C)C(=O)C(CC(C)C)N(C)C(=O)C(CC(C)C)N(C)C(=O)C(C)NC(=O)C(C)NC(=O)C(CC(C)C)N(C)C(=O)C(C(C)C)NC(=O)C(CC(C)C)N(C)C(=O)CN(C)C1=O` (centres unmarked) [Compound 3]: the IC50 at human CypA is 0.0119 µM; at CnA it was 6.9 µM. In addition, the EC50 came out at 1.1 µM with HCoV-NL63; 2.05 µM in the experiment on HCoV-229E-LUC (18 hrs p.I., Huh-7.5, MOI=0.1, read-out: EC50 HCoV-229E-LUC); 0.92 µM in the experiment with HCoV-229E-LUC (48 hrs p.I., Huh-7.5, MOI=0.1, listed as Comp. 3, read-out: EC50 HCoV-229E-LUC); 0.97 µM in the experiment with HCoV-229E-LUC (48 hrs p.I., Huh-7.5, MOI=0.1, read-out: EC50 HCoV-229E-LUC). Further, in the experiment with HCoV-NL63 N protein, the “concentration at which HCoV-NL63 N-protein decreases” value was 1.25 µM. The “inhibition of 229E-LUC replication (in words)” value with HCoV-229E-LUC is given as “low micromolar range”. Besides, the “NFAT-GFP translocation in HEK-293 cells” value with NFAT-GFP is “yes”.

Take `CCC1NC(=O)C(C(O)C(C)Cc2nc3ccc(C(=O)c4ccccc4)cc3[nH]2)N(C)C(=O)C(C(C)C)N(C)C(=O)C(CC(C)C)N(C)C(=O)C(CC(C)C)N(C)C(=O)C(C)NC(=O)C(C)NC(=O)C(CC(C)C)N(C)C(=O)C(C(C)C)NC(=O)C(CC(C)C)N(C)C(=O)CN(C)C1=O` (centres unmarked) [Compound 4]: the figures for the IC50 on human CypA, at CnA (binary PPIase/drug complexes) and in the experiment with NFAT were 0.0141 µM, ~10 µM and 1.3 µM, respectively. Further, the EC50 in the experiment on HCoV-NL63 was determined as 8.1 µM. Moreover, the “NFAT-GFP translocation in HEK-293 cells” value with NFAT-GFP is “yes”.

For `CCC1NC(=O)C(C(O)C(C)Cc2nc3ccc(-c4nc5ccccc5s4)cc3[nH]2)N(C)C(=O)C(C(C)C)N(C)C(=O)C(CC(C)C)N(C)C(=O)C(CC(C)C)N(C)C(=O)C(C)NC(=O)C(C)NC(=O)C(CC(C)C)N(C)C(=O)C(C(C)C)NC(=O)C(CC(C)C)N(C)C(=O)CN(C)C1=O` (centres unmarked) [Compound 5], the IC50 at human CypA is 0.0166 µM; on CnA (binary PPIase/drug complexes) it was > 10 µM; in the experiment with NFAT, 1.2 µM. In addition, the EC50 with HCoV-NL63 is 2.3 µM. In addition, the “NFAT-GFP translocation in HEK-293 cells” value in the experiment with NFAT-GFP is “yes”.

Consider `C/C=C/C[C@@H](C)[C@@H](O)[C@H]1C(=O)N[C@@H](C(C)C)C(=O)N(C)CC(=O)N(C)[C@@H](CC(C)C)C(=O)N[C@@H](C(C)C)C(=O)N(C)[C@@H](CC(C)C)C(=O)N[C@@H](C)C(=O)N[C@H](C)C(=O)N(C)[C@@H](CC(C)C)C(=O)N(C)[C@@H](CC(C)C)C(=O)N(C)[C@@H](C(C)C)C(=O)N1C` [CsD], for which, in the experiment with HCoV-NL63, the EC50 worked out at 2.5 µM. Also, the “immunosuppressant activity in lymphocyte proliferation assays relative to CsA” value in the experiment on lymphocyte proliferation is “about 10 % of the CsA activity”. In the experiment on NFAT-GFP, the “NFAT-GFP translocation in HEK-293 cells” value was “remained in the cytoplasm and no”.

As for `C/C=C/C[C@@H](C)[C@@H](O)[C@H]1C(=O)N[C@@H](CC)C(=O)N(C)CC(=O)N(C)[C@@H](CC(C)C)C(=O)N[C@@H](C(C)C)C(=O)N(C)[C@@H](CC(C)C)C(=O)N[C@@H](C)C(=O)N[C@H](C)C(=O)N(C)[C@@H](CC(C)C)C(=O)N(C)[C@@H](CC(C)C)C(=O)N(C)[C@H](C(C)C)C(=O)N1C` [CsH, Cyclosporin H], the “inhibition of 229E-LUC replication (in words)” value with HCoV-229E-LUC is “slight residual inhibitory activity; also recorded: do not inhibit”. The “HCoV-229E N protein synthesis (in words)” value with HCoV-229E N protein (at 20 μM) was “allow significant N protein synthesis”.

Turning to `C=CC[C@@H]1/C=C(\C)C[C@H](C)C[C@H](OC)[C@H]2O[C@@](O)(C(=O)C(=O)N3CCCC[C@H]3C(=O)O[C@H](/C(C)=C/[C@@H]3CC[C@@H](O)[C@H](OC)C3)[C@H](C)[C@@H](O)CC1=O)[C@H](C)C[C@@H]2OC` [FK506], the EC50 with HCoV-NL63 (setting [3]) came out at 6.6 µM; in the experiment on HCoV-229E-LUC (setting [4]), 2.96 µM; in the experiment on HCoV-229E-LUC (setting [5]) it was 0.86 µM.

For the molecule `C/C=C/C[C@@H](C)[C@@H](O)[C@H]1C(=O)N[C@@H](CC)C(=O)N(C)CC(=O)N(C)[C@@H]([C@@H](C)CC)C(=O)N[C@@H](C(C)C)C(=O)N(C)[C@@H](CC(C)C)C(=O)N[C@@H](C)C(=O)N[C@H](C)C(=O)N(C)[C@@H](CC(C)C)C(=O)N(C)[C@@H](CC(C)C)C(=O)N(C)[C@@H](C(C)C)C(=O)N1C` [NIM811], the EC50 came out at 0.8 µM in the experiment on HCoV-NL63 (setting [3]), 3.11 µM with HCoV-229E-LUC (setting [4]) and 1.19 µM with HCoV-229E-LUC (setting [5]). In addition, in the experiment with HCoV-NL63 N protein, the “concentration at which HCoV-NL63 N-protein decreases” value turned out to be 1.25 µM. Besides, in the experiment with HCoV-229E-LUC, the “inhibition of 229E-LUC replication (in words)” value is on record as “low micromolar range”. Further, the “inhibition of feline Coronavirus spread (in words)” value in experiment [1] is “inhibits spread”. Further, the “inhibition of SARS-CoV-RNA replicon propagation (in words)” value in the experiment on SARS-CoV-Replicon RNA was “inhibition”. Further, the “NFAT-GFP translocation in HEK-293 cells” value with NFAT-GFP is reported as “yes”. In experiment [2], the “inhibition of murine Coronavirus spread (in words)” value is recorded as “inhibits spread”.
